# Calls of active or inactive are those of the source. No cut-off for these calls is given here.
# Tests used:
# [1] = target: Aurora kinase B (Homo sapiens) (UniProt Q96GD4); experiment: Disruption of mitotic localization of AURKB in human RPE-MYC H2B-GFP cells assessed as induction of mitotic arrest measured after 24 hrs by fluorescence high content cell imaging analysis; type: cell-based
# [2] = target: Aurora kinase B (Homo sapiens) (UniProt Q96GD4); experiment: Disruption of kinetochore localization of AURKB during prophase of human RPE-MYC cells expressing BCL2 at 40 nM measured after 6 hrs by immunofluorescence staining analysis; type: cell-based
# [3] = target: Aurora kinase B (Homo sapiens) (UniProt Q96GD4); experiment: Disruption of kinetochore localization of AURKB during anaphase of human RPE-MYC cells expressing BCL2 at 40 nM measured after 6 hrs by immunofluorescence staining analysis; type: cell-based
# [4] = target: Aurora kinase B (Homo sapiens) (UniProt Q96GD4); experiment: Disruption of mitotic localization of AURKB in human RPE-MYC cells expressing BCL2 assessed as disruption of PLK1 localization at spindle mid-zone at 40 nM measured after 6 hrs by immunofluorescence staining analysis; type: cell-based
# [5] = target: Aurora kinase B (Homo sapiens) (UniProt Q96GD4); experiment: Disruption of mitotic localization of AURKB in human RPE-MYC cells expressing BCL2 assessed as disruption of PLK1 localization at centrosome during prophase at 40 nM measured after 6 hrs by immunofluorescence staining analysis; type: cell-based
# [6] = target: Aurora kinase B (Homo sapiens) (UniProt Q96GD4); experiment: Disruption of mitotic localization of AURKB in human RPE-MYC cells expressing BCL2 assessed as disruption of MKLP1 localization at spindle mid-zone at 40 nM measured after 6 hrs by immunofluorescence staining analysis; type: cell-based
# NCI-H23 = experiment: Cytotoxicity against human NCI-H23 cells assessed as cell growth inhibition incubated for 3 days by MTT assay; type: functional, cell-based; settings: time 3.0 day
# A549 = experiment: Cytotoxicity against human A549 cells assessed as cell growth inhibition incubated for 3 days by MTT assay; type: functional, cell-based; settings: time 3.0 day
# MDA-MB-231 = experiment: Cytotoxicity against human MDA-MB-231 cells assessed as cell growth inhibition incubated for 3 days by MTT assay; type: functional, cell-based; settings: time 3.0 day
# [7] = target: Discoidin domain-containing receptor 2 (Homo sapiens) (UniProt Q16832); experiment: Inhibition of human recombinant DDR2 at 2 uM by KINOMEscan assay
# Discoidin domain-containing receptor 2 (Homo sapiens), sequence (Q16832 whole entry, the tested form may be a part): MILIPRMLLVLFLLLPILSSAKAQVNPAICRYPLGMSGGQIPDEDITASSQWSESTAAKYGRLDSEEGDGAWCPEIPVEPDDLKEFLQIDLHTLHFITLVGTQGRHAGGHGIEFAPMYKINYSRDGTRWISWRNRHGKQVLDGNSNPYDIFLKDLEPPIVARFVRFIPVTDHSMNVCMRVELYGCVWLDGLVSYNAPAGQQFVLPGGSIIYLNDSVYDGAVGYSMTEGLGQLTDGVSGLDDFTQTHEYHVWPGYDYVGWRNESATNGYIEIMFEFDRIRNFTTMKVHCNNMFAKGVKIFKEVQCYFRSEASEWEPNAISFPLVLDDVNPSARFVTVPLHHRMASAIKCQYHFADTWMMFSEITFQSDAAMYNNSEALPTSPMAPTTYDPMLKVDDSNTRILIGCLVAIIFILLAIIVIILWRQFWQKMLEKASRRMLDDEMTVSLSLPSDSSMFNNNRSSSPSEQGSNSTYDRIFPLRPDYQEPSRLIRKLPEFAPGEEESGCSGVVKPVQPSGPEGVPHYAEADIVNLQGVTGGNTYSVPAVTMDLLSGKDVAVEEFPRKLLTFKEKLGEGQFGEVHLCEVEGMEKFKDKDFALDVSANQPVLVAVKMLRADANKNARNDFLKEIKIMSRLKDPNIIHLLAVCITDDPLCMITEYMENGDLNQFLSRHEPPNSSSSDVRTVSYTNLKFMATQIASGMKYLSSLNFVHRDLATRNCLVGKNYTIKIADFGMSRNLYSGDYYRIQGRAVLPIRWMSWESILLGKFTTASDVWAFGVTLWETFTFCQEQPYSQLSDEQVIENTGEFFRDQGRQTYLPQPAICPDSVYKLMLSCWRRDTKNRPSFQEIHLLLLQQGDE
# [8] = target: Tyrosine-protein kinase ABL1 (Homo sapiens) (UniProt P00519); experiment: Inhibition of human recombinant ABL1 at 2 uM by KINOMEscan assay
# Tyrosine-protein kinase ABL1 (Homo sapiens), sequence (P00519 whole entry): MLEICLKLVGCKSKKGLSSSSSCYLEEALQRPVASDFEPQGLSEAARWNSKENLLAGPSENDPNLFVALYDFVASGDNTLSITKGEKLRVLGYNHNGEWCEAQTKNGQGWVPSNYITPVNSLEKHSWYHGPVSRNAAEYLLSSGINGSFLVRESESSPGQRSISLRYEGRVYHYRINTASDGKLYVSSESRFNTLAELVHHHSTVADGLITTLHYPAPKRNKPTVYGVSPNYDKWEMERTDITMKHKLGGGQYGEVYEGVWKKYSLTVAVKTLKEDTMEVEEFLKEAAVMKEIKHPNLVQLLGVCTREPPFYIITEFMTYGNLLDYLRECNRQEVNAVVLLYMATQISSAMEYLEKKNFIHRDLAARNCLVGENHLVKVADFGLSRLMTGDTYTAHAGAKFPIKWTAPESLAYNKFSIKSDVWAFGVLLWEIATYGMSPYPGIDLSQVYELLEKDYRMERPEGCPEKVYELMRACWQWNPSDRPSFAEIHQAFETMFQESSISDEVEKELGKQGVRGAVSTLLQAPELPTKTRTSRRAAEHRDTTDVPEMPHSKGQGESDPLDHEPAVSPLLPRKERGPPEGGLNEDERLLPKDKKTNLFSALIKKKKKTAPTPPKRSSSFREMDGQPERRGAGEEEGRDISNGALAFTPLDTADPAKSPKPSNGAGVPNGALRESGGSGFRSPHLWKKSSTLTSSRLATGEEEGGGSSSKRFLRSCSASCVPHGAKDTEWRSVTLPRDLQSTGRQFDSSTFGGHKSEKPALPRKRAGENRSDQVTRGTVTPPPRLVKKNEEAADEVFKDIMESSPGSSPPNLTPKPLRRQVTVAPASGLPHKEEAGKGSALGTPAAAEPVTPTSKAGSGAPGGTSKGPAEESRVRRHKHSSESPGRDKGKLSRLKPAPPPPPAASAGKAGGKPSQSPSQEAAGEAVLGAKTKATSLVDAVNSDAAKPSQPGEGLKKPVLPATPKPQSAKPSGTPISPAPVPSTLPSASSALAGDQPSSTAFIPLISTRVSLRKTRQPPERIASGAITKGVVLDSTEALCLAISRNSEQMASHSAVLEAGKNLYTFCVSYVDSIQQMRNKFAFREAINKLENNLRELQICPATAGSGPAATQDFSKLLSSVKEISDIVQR
# [9] = tested on: Tyrosine-protein kinase ABL1 (Homo sapiens), P00519 [F317L]; experiment: Inhibition of human recombinant ABL1 F317L mutant at 2 uM by KINOMEscan assay
# Tyrosine-protein kinase ABL1 (Homo sapiens), P00519 [F317L], sequence (P00519 whole entry F317L, the tested form may be a part): as the sequence (P00519 whole entry) above, with F317L counted along it
# [10] = target: Discoidin domain-containing receptor 2 (Homo sapiens, UniProt Q16832); experiment: Inhibition of DDR2 (unknown origin) assessed as inhibition of DDR2 interaction with DNA-bound ligand by qPCR analysis
# Discoidin domain-containing receptor 2, sequence (Q16832 whole entry, the tested form may be a part): as the sequence (Q16832 whole entry, the tested form may be a part) above
# [11] = target: Serine/threonine-protein kinase PLK3 (Homo sapiens) (UniProt Q9H4B4); experiment: Inhibition of PLK3 (unknown origin) by bio-chip based analysis
# Serine/threonine-protein kinase PLK3 (Homo sapiens), sequence (Q9H4B4 whole entry, looked up): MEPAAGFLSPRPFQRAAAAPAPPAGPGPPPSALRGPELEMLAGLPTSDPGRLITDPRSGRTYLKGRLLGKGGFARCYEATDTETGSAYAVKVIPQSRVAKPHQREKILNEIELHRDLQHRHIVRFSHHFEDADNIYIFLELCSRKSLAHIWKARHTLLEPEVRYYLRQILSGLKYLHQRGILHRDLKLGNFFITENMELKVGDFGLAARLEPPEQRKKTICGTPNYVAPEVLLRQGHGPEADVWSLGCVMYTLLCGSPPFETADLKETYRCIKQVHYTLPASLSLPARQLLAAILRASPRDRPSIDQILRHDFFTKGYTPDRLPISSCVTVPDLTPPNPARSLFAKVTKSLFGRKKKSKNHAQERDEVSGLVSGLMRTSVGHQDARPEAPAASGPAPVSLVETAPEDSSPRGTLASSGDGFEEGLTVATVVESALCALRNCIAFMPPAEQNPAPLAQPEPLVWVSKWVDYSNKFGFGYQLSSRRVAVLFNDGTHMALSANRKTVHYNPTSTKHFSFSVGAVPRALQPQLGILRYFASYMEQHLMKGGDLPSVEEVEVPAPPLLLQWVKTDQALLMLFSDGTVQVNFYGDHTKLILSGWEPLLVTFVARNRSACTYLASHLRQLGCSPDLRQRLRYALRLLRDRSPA
# [12] = target: Serine/threonine-protein kinase PLK4 (Homo sapiens) (UniProt O00444); experiment: Inhibition of PLK4 (unknown origin) by bio-chip based analysis
# Serine/threonine-protein kinase PLK4 (Homo sapiens), sequence (O00444 whole entry): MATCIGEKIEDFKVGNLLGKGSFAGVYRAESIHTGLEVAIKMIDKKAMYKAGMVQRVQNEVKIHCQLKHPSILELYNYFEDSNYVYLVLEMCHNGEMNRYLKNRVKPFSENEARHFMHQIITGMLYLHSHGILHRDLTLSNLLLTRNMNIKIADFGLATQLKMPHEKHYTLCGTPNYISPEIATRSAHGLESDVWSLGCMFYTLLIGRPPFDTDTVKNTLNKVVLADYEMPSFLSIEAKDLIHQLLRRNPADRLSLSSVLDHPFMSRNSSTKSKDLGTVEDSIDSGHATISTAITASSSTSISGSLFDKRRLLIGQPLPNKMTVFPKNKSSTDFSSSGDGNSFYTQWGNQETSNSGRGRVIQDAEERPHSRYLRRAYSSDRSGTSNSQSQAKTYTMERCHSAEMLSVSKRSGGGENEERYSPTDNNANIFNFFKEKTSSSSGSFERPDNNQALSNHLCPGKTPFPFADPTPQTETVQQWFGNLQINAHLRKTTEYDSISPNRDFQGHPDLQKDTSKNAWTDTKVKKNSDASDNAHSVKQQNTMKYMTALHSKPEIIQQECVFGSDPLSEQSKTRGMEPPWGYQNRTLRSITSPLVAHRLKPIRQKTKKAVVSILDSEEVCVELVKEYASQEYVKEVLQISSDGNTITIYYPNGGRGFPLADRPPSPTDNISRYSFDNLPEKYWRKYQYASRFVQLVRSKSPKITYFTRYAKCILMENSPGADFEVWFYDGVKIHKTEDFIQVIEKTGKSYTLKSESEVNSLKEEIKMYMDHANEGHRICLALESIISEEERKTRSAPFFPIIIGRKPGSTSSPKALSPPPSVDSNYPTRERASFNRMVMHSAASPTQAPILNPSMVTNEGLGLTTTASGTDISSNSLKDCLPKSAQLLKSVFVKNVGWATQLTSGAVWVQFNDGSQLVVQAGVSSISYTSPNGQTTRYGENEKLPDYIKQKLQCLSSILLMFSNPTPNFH
# [13] = target: Rho-associated protein kinase 2 (Homo sapiens) (UniProt O75116); experiment: Inhibition of ROCK2 (unknown origin) by bio-chip based analysis
# [14] = target: Mast/stem cell growth factor receptor Kit (Homo sapiens, UniProt P10721); experiment: Inhibition of c-Kit (unknown origin); type: toxicity
# Mast/stem cell growth factor receptor Kit, sequence (P10721 whole entry): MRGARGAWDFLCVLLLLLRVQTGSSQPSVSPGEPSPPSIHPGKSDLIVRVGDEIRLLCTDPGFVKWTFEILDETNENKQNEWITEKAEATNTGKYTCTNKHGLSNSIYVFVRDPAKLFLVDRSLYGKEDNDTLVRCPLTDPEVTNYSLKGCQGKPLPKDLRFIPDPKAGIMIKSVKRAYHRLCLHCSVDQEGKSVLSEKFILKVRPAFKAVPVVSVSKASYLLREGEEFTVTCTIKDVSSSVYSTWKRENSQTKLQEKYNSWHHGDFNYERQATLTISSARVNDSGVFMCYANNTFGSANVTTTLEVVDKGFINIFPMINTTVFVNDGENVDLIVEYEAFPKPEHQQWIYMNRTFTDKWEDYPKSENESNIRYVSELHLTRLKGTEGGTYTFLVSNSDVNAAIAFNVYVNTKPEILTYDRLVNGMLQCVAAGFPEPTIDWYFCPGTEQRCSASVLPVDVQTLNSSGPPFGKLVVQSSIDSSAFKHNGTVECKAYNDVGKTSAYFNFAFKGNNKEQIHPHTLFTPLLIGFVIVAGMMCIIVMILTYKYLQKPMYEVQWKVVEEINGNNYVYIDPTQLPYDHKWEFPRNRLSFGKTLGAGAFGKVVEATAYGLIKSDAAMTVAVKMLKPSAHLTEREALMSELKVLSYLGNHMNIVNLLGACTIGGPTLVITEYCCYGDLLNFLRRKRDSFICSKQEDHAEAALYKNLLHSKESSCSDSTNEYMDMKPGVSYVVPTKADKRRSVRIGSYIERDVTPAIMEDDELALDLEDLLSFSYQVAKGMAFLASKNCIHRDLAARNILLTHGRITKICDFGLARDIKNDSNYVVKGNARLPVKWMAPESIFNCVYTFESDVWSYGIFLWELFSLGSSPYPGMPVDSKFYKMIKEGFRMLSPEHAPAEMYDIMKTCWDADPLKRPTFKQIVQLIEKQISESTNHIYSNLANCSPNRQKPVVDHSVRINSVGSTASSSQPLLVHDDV
# [15] = Drug degradation in human plasma at 1 to 10 uM incubated for 2 hrs by LC-MS analysis; type: ADME, cell-free; settings: dose 1-10 µM, read-out: Drug degradation
# [16] = Drug degradation in mouse plasma at 1 to 10 uM incubated for 2 hrs by LC-MS analysis; type: ADME, cell-free; settings: dose 1-10 µM, read-out: Drug degradation
# [17] = Drug degradation in HCl buffer at pH 2.2 measured after 72 hrs by LC-MS analysis; type: physicochemical; settings: read-out: Drug degradation
# [18] = Kinetic solubility of the compound in PBS buffer at pH 7.4 measured after 72 hrs by LC-MS analysis; type: physicochemical; settings: read-out: Kinetic_solubility
# [19] = Lipophilicity, log D of the compound in Octanol and HCl buffer at pH 2.2 incubated for 24 hrs under shaking condition followed by incubation for 1 hr without shaking by LC-MS analysis; type: physicochemical
# [20] = Lipophilicity, log D of the compound in Octanol and PBS buffer at pH 7.4 incubated for 24 hrs under shaking condition followed by incubation for 1 hr without shaking by LC-MS analysis; type: physicochemical
# [21] = Tmax in Wistar rat at 20 mg/kg, po measured for 24 hrs by LC-MS/MS analysis; type: ADME, organism-based; settings: in vivo
# [22] = Dose normalized AUC (0 to infinity) in Wistar rat at 20 mg/kg, po by LC-MS/MS analysis; type: ADME, organism-based; settings: in vivo
# [23] = Apparent volume of distribution in Wistar rat at 20 mg/kg, po measured for 24 hrs by LC-MS/MS analysis; type: ADME, organism-based; settings: in vivo
# [24] = Clearance in Wistar rat at 20 mg/kg, po measured for 24 hrs by LC-MS/MS analysis; type: ADME, organism-based; settings: in vivo
# [25] = Dose normalized AUC (0 to infinity) in Wistar rat at 2 mg/kg, iv by LC-MS/MS analysis; type: ADME, organism-based; settings: in vivo
# [26] = Apparent volume of distribution in Wistar rat at 2 mg/kg, iv measured after 24 hrs by LC-MS/MS analysis; type: ADME, organism-based; settings: in vivo, read-out: Vz
# [27] = MRT (0 to infinity) in Wistar rat at 2 mg/kg, iv by LC-MS/MS analysis; type: ADME, organism-based; settings: in vivo
# [28] = Toxicity in BALB/c nude mouse xenografted with human HCT-116 cells assessed as body weight at 50 mg/kg, po bid for 7 days; type: organism-based; settings: in vivo, 168 h, time 7 day
# [29] = Toxicity in BALB/c nude mouse xenografted with human HCT-116 cells assessed as animal's well being at 50 mg/kg, po bid for 7 days; type: organism-based; settings: in vivo, 168 h, time 7 day
# Mus musculus = experiment: Induction of mitotic arrest in BALB/c nude mouse xenografted with human HCT-116 cells assessed as increase in mitotic index by measuring increase in accumulation of H3Ser10P positive cells in tumor at 50 mg/kg, po bid for 7 days by immunohistochemical staining based analysis relative to control; type: functional; settings: time 7 day
# [30] = Drug uptake in tumor of BALB/c nude mouse xenografted with human HCT-116 cells at 50 mg/kg, po bid for 7 days and measured at 6 hrs post-last drug administration by LC-MS/MS analysis; type: ADME, organism-based, Neoplasm; settings: time 7 day, read-out: Drug uptake
# [31] = Ratio of AUC (0 to 6 hrs) in BALB/c nude mouse xenografted with human HCT-116 cells at 50 mg/kg, po bid for 7 days to AUC (0 to 6 hrs) in BALB/c nude mouse xenografted with human HCT-116 cells administered as single dose; type: ADME, organism-based; settings: in vivo
# [32] = Plasma concentration in BALB/c nude mouse xenografted with human HCT-116 cells at 50 mg/kg, po bid for 7 days and measured at 12 hrs post-last drug administration by LC-MS/MS analysis; type: ADME, organism-based; settings: time 7 day
# [33] = target: Aurora kinase B (Homo sapiens) (UniProt Q96GD4); experiment: Disruption of mitotic localization of AURKB in human RPE-MYC H2B-GFP cells assessed as induction of mitotic arrest by fluorescence high content cell imaging analysis; type: cell-based
# Aurora kinase B (Homo sapiens), sequence (Q96GD4 whole entry): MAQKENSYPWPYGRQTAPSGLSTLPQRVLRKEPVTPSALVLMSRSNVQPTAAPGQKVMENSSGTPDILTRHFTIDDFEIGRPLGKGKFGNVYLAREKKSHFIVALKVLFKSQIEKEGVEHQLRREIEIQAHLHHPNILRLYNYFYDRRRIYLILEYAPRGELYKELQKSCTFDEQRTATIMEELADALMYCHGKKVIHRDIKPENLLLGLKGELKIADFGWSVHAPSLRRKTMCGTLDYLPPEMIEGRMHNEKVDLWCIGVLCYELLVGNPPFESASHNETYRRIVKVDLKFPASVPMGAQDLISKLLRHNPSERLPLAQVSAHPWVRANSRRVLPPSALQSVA
structure (smiles),measurement,setting,value
COc1cc(NC(C)=O)cc(Oc2ccnc3ccc(OC)cc23)c1,MEC,[1],0.01 µM
same,Activity,[2],inactive
same,Activity,[3],Active
same,Activity,[4],Active
same,Activity,[5],inactive
same,Activity,[6],Active
same,Activity,NCI-H23,Active
same,Activity,A549,Active
same,Activity,MDA-MB-231,Active
same,inhibition,[7],Active
same,inhibition,[8],Active
same,inhibition,[9],Active
same,IC50,[10],225 nM
same,inhibition,[11],inactive
same,inhibition,[12],inactive
same,inhibition,[13],inactive
same,inhibition (INH),[14],Not Active
same,"metabolised at 2 h, up to 10 µM",[15],0%
same,"metabolised at 2 h, up to 10 µM",[16],0%
same,degraded at 72 h,[17],0%
same,solubility kinetic at 72 h,[18],16 µM
same,logD at 25 h,[19],0.31
same,logD at 25 h,[20],3.81
same,Tmax,[21],0.5 h
same,AUC/dose,[22],149.54 ng·h/mL/mg/kg
same,Vz,[23],15.41 L/kg
same,CL/F,[24],54.7 mL/min/kg
same,AUC/dose,[25],517.74 ng·h/mL/mg/kg
same,Vd,[26],2.78 L/kg
same,MRT inf,[27],2.09 h
same,Activity,[28],Non-Toxic
same,Activity,[29],Non-Toxic
same,fold change (FC),Mus musculus,6.7
same,concentration at 168 h,[30],239 ng/mL
same,Ratio,[31],2
same,concentration at 168 h,[32],3.27 ng/mL
same,Activity,[33],inactive
